Test results reported in PubChem BioAssay (NCI).
Values joined by “and” are separate entries in the source; they are usually repeats but may differ in a detail not shown here. Equal entries are not always repeated.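 Exposure lasted 48 hours, with cells grown in 96-well plates and compounds tested at five concentrations. GI50 marks 50% less growth. At the TGI there is no net growth.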

Experiments:
Assay in all cases: NCI tumour cell line growth inhibition, 48 h
A549 NSCLC = tested on: A549 NSCLC
DMS 114 small cell lung = tested on: DMS 114 small cell lung
HCT-116 colon = tested on: HCT-116 colon
HCT-15 colon = tested on: HCT-15 colon
HOP-92 NSCLC = tested on: HOP-92 NSCLC
KM12 colon = tested on: KM12 colon
M19-MEL melanoma = tested on: M19-MEL melanoma
SK-OV-3 ovarian = tested on: SK-OV-3 ovarian
U251 CNS = tested on: U251 CNS
HS 578T breast = tested on: HS 578T breast

Row | Structure (SMILES) | GI50 (A549 NSCLC) | TGI (A549 NSCLC) [µM] | GI50 (DMS 114 small cell lung) [nM] | TGI (DMS 114 small cell lung) [µM] | GI50 (HCT-116 colon) [µM] | TGI (HCT-116 colon) | GI50 (HCT-15 colon) [µM] | TGI (HCT-15 colon) [µM] | GI50 (HOP-92 NSCLC) [µM] | TGI (HOP-92 NSCLC) | GI50 (KM12 colon) [µM] | TGI (KM12 colon) | GI50 (M19-MEL melanoma) [µM] | TGI (M19-MEL melanoma) [µM] | GI50 (SK-OV-3 ovarian) [µM] | TGI (SK-OV-3 ovarian) | GI50 (U251 CNS) [µM] | TGI (U251 CNS) | GI50 (HS 578T breast) | TGI (HS 578T breast)
1 | CCC[CH2][Sn]1([CH2]CCC)[O]CC(CN2CCOCC2)[O]1 (stereo not drawn) | 18.3 µM | 32.2 | 1360 | 4.35 | 8.84 | 21 µM | 6.4 | 18.6 | 3.7 | 14 µM | 10.4 | 22.5 µM | 3.99 | 17.3 | 12.3 | 25.8 µM | 3.05 | 11 µM | – | –
2 | COc1ccc(C(=O)CC(=O)C(=O)Nc2ccc(C)c(C)c2)cc1 | – | > 100 | – | > 58.5 | – | > 64.4 µM | – | > 57.1 | – | > 100 µM | – | > 100 µM | – | > 100 | – | > 100 µM | – | > 100 µM | – | –
3 | COc1ccc(NC(=O)CC(=O)N2N=C(N(CCC#N)c3cccc(C)c3)CC2c2ccccc2)cc1 (stereo not drawn) | – | > 100 | – | – | – | > 100 µM | – | > 100 | – | > 100 µM | – | > 100 µM | – | > 100 | – | > 100 µM | – | > 100 µM | – | –
4 | O=C1OC(c2ccccc2)=N/C1=C\c1cc(Cl)ccc1Cl | – | > 100 | – | > 100 | – | > 100 µM | – | 82.9 | – | > 100 µM | – | > 100 µM | – | > 100 | – | – | – | > 100 µM | – | –
5 | COC(=O)C(Cc1ccccc1)NC(=O)Cn1ccnc1[N+](=O)[O-] (stereo not drawn) | – | > 100 | – | > 100 | – | – | – | > 100 | – | > 100 µM | – | > 100 µM | – | > 100 | – | > 100 µM | – | > 100 µM | – | –
6 | O=C(c1nc2ccc(Cl)cc2[nH]c1=O)C(O)c1ccc2c(c1)OCO2 (stereo not drawn) | – | > 100 | – | 94.1 | – | – | – | – | – | > 100 µM | – | > 100 µM | – | > 100 | – | > 100 µM | – | > 100 µM | – | –
7 | Cc1ccc(C(=O)C#Cc2c[nH]c(=O)[nH]c2=O)cc1 | – | 39.8 | – | – | – | 18.5 µM | – | 37.7 | – | 33.3 µM | – | 28.2 µM | – | 36.5 | – | 73.6 µM | – | 28.2 µM | – | –
8 | COC1=C2C[C@@H](C)C[C@@H](OC)[C@@H](O)[C@H](C)/C=C(\C)[C@@H](OC(N)=O)[C@H](OC)/C=C\C=C(/C)C(=O)NC(=CC1=O)C2=O | – | – | – | 2.14 | – | 3.95 µM and 5.44 µM and 1.88 µM | – | – | – | – | – | – | – | – | – | 37.5 µM and 18 µM and 8.19 µM | – | 6.51 µM and 19.4 µM and 4.2 µM | 1310 nM and 11800 nM and 1250 nM | 17.5 µM and 42 µM and 38.2 µM
9 | COc1ccc(C(=O)C(C(=O)C(=O)NC2C3CC4CC(C3)CC2C4)c2ccc(OC)cc2)cc1 (stereo not drawn) | – | > 100 | – | > 100 | – | > 100 µM | – | > 100 | – | > 100 µM | – | > 100 µM | – | > 100 | – | > 100 µM | – | > 100 µM | – | –
10 | COC(=O)CS(=O)c1ccccc1 (stereo not drawn) | – | > 100 | – | 56.5 | – | > 100 µM | – | > 100 | – | > 100 µM | – | > 100 µM | – | > 100 | – | > 100 µM | – | 98.6 µM | – | –
11 | O=NN/C(=C1\Nc2ccc([N+](=O)[O-])cc2NC1=O)C(O)c1ccc([N+](=O)[O-])cc1 (stereo not drawn) | – | > 100 | – | > 100 | – | > 100 µM | – | > 100 | – | > 100 µM | – | > 100 µM | – | > 100 | – | > 100 µM | – | > 100 µM | – | –
12 | CN(C)C1=NC2=S(SC(Nc3ccccc3)=N2)S1 (stereo not drawn) | – | 47.2 | – | 42.6 | – | > 100 µM | – | > 100 | – | 59.8 µM | – | > 100 µM | – | > 100 | – | 90.4 µM | – | > 100 µM | – | –
13 | CCCc1nc(NC#N)nc(C(=O)NC23CC4CC(CC(C4)C2)C3)c1C | – | > 100 | – | > 100 | – | > 100 µM | – | > 100 | – | > 100 µM | – | > 100 µM | – | > 100 | – | > 100 µM | – | > 100 µM | – | –
14 | O=C(O)c1cccc2cccc(C(=O)O)c12.[Hg] | 20.4 µM | 42.3 | 3800 | 21.5 | 15.9 | 29.3 µM | 14.4 | 29.8 | – | – | 18.3 | 32.4 µM | 10.4 | 23.3 | 19.6 | 33.9 µM | 12.2 | 26.8 µM | – | –
15 | CCC1CC(C)=CCN1S(=O)(=O)c1ccc(C)cc1 (stereo not drawn) | – | > 100 | – | 53.7 | – | > 100 µM | – | 83.7 | – | – | – | 70.8 µM | – | – | – | > 100 µM | – | – | – | –
16 | COc1cc(Nc2nc3cc(C(F)(F)F)ccc3nc2-c2ccccc2)cc(OC)c1OC | – | > 100 | – | > 100 | – | – | – | > 100 | – | 20.7 µM | – | > 100 µM | – | – | – | > 100 µM | – | > 100 µM | – | –
17 | Cc1ccc(-c2nc(N)c(C#N)c3c2CCOc2c-3ccc3ccccc23)cc1 | 1.2 µM | 22.9 | – | – | 0.21 | – | 0.0543 | – | 0.334 | 7.44 µM | 0.203 | 48.6 µM | – | – | 3.42 | – | 0.222 | 4.25 µM | 227 nM | 1.51 µM
18 | Cc1c(-c2nnc(-c3ccc(F)cc3)o2)nnn1-c1ccnc2c(C(F)(F)F)cccc12 | 32.3 µM | > 100 | – | – | 16.7 | > 100 µM | > 100 | > 100 | 14.7 | 76.9 µM | 89.5 | > 100 µM | – | – | 30 | > 100 µM | 30.4 | > 100 µM | 15500 nM | 53.9 µM
19 | CSC1=Nc2c(c(C)c(C)n2COC(CO)CO)C2=NC(=O)CC(C)N12 (stereo not drawn) | > 100 µM | > 100 | – | – | > 100 | > 100 µM | > 100 | > 100 | > 100 | > 100 µM | > 100 | > 100 µM | – | – | > 100 | > 100 µM | > 100 | > 100 µM | > 100000 nM | > 100 µM
20 | CCOC(=O)N[C@@H]1C2CC(=O)C(O2)[C@@H]1OC (stereo partly drawn) | – | > 100 | – | – | – | > 100 µM | – | > 100 | – | > 100 µM | – | > 100 µM | – | > 100 | – | > 100 µM | – | > 100 µM | – | –
21 | NCCCNCCSSC/C=C\CSSCCNCCCN | > 100 µM and 46.8 µM | > 100 | – | > 100 | – | – | – | > 100 | – | 86.3 µM and 84.5 µM | – | 38.7 µM and 36.3 µM | – | > 100 | – | > 100 µM | – | > 100 µM | – | –
